1 compound from patent publication US20050043374A1, “Aryl substituted oxazolidinones with antibacterial activity” (priority 2001, published 2005) can be followed below.

Common to all, as to format: cell-based
In experiment [1] the test system is Streptococcus pyogenes. As to the kind of experiment: MIC, agar with 5% defibrinated horse blood, streptococci. As to conditions: 10^4 CFU/spot, 37° C., 5% carbon dioxide, 48 hours. As for the experimental part:
(§1) The following results were obtained on a standard in-vitro test system. The activity is described in terms of the minimum inhibitory concentration (MIC) determined by the agar-dilution technique with an inoculum size of 10^4 CFU/spot. Typically, compounds are active in the range 0.01 to 256 μg/ml.
(§2) Streptococci and enterococci were tested on agar supplemented with 5% defibrinated horse blood, an inoculum of 10^4 CFU/spot and an incubation temperature of 37° C. in an atmosphere of 5% carbon dioxide for 48 hours—blood is required for the growth of some of the test organisms. Fastidious Gram negative organisms were tested in Mueller-Hinton broth, supplemented with hemin and NAD, grown aerobically for 24 hours at 37° C., and with an innoculum of 5×10^4 CFU/well.

For experiment [2], the system named is Streptococcus pneumoniae. Described as above. The conditions noted are these: 10^4 CFU/spot, 37° C., 5% carbon dioxide, 48 hours. As to the method: as §1, §2
Experiment [3] concerns Haemophilus influenzae. As to the kind of experiment: MIC, Mueller-Hinton broth with hemin and NAD, fastidious Gram negative organisms. As to conditions: aerobic, 24 hours, 37° C., 5×10^4 CFU/well. As for the experimental part: as §1, §2
The subject of experiment [4] is Moraxella catarrhalis. The experiment is described as above. As to conditions: aerobic, 24 hours, 37° C., 5×10^4 CFU/well. As to the method: as §1, §2
Experiment [5] has as its system Staphylococcus aureus MSQS (methicillin sensitive and quinolone sensitive). As to the kind of experiment: MIC, agar dilution, staphylococci. As to conditions: inoculum 10^4 CFU/spot, 37° C., 24 hours. As for the experimental part: as §1
(§3) Staphylococci were tested on agar, using an inoculum of 10^4 CFU/spot and an incubation temperature of 37° C. for 24 hours—standard test conditions for the expression of methicillin resistance.
On the technique in general: In agar dilution, organisms are placed on agar that contains the substance at set levels.

The test system of experiment [6] is Staphylococcus aureus MRQR (methicillin resistant and quinolone resistant). As to the kind of experiment: MIC, agar dilution, staphylococci. As to conditions: inoculum 10^4 CFU/spot, 37° C., 24 hours. As for the experimental part:
as §1, §3

In brackets after ≈: the same amount, converted by molar mass.

As to `N#Cc1nnc(-c2ccc(N3C[C@H](Cn4ccnn4)OC3=O)cc2F)s1` [Example 1, (5R)-3-(3-Fluoro-4-(5-cyano-1,3,4-thiadiazol-2-yl)phenyl)-5-(1H-1,2,3-triazol-1-ylmethyl)-1,3-oxazolidin-2-one], the MIC was determined as 0.125 mg/L (≈ 0.337 µM) in experiment [1]; 0.125 mg/L (≈ 0.337 µM) in experiment [2]; 2 mg/L (≈ 5.39 µM) in experiment [3]; 0.5 mg/L (≈ 1.35 µM) in experiment [4]; 0.125 mg/L (≈ 0.337 µM) in experiment [5]; 0.25 mg/L (≈ 0.673 µM) in experiment [6].
